≈ marks a conversion by molar mass, not a printed value. Entries after “also recorded” stand apart in the source; their conditions may differ.
Key:
[1] = Dynamic vapour sorption (moisture sorption) with XRPD of post-DVS material; assay type: physicochemical; conditions: for Moisture Sorption 60% RH / Moisture adsorbed at 60% RH / Moisture Sorption 90% RH / Weight moisture uptake at 60% RH / Weight moisture uptake at 90% RH: DVS; for Moisture Sorption 60% RH / Moisture adsorbed at 60% RH / Moisture Sorption 90% RH: 25.0 °C; for XRPD analysis of the post-DVS material: after DVS and drying at 60 °C for 2 hours; for Hygroscopicity (in words): from DVS moisture sorption
Protocol: Dynamic vapour sorption experiment was carried out by first holding the sample at 40% RH and 25.0° C. until an equilibrium weight was reached or for a maximum of four hours. The sample was then subjected to an isothermal (at 25.0° C.) adsorption scan from 40 to 90% RH in steps of 10%. The sample was allowed to equilibrate to an asymptotic weight at each point for a maximum of four hours. Following adsorption, a desorption scan from […] to 5% RH (at 25.0° C.) was run in steps of 10% again allowing a maximum of four hours for equilibration to an asymptotic weight. An adsorption scan was then performed from 0 to 40% RH in steps of 10%. The sample was then dried for no less than two hours at 60.0° C. and the resulting solid analyzed by XRPD.

[2] = Single form slurry experiments of Forms A, D and G; assay type: physicochemical; conditions: for Outcome in the single form and competitive slurry experiments (in words): ambient temperature, all tested conditions
Protocol: Single form slurry experiments were conducted for Forms A, D and G in three solvents stems, water, 1:2 v/v IPAc/heptane, and toluene to evaluate their physical form stability as a single polymorph (Table 14). Form A remained unchanged at six day time point. […] Form D remained unchanged for three days in water but converted to a mixture A and D at six days. In 1:2 IPAc/heptane and toluene, Form D converted to a mixture of A and D at three days and then Form A at six days. […] Form D is also a metastable polymorph but its conversion to Form A is kinetically slower than Form G. The conversion was the slowest in water partly due to low solubility.
Approximately 10-20 mg of Forms A, D and G were weighed into 8 mL clear vials equipped with magnetic stir bars (Table 14). Water, IPAc/Heptane (1:2 V/V) and toluene were used as the solvent systems for these competitive slurry experiments. Three selected solvents, 1.0 mL, were added to achieve free-flowing slurry and allowed to equilibrate at room temperature. All slurries will be isolated via centrifuge filtration after three day and six days of equilibration.

[3] = Competitive slurry experiment of Forms A, D and G; assay type: physicochemical; conditions: mixture of Forms A, D and G slurried in Water, RT
Protocol: To evaluate relative stability of the anhydrate polymorphs, competitive slurry experiments of Forms A, D and G were conducted as described in below and summarized in Table 12. In all three solvent systems, water, 1:2 v/v IPAc/heptane, and toluene, Form A was the final polymorph after equilibration for 8 days.
Slurry experiments were performed using the following procedure: a mixture of Form A (˜12.0 mg, Compound 1), Form D (˜12.0 mg) and Form G (˜12.0 mg) were weighed into a 20.0 mL clear vial equipped with magnetic stir bars (Table 12). Water, IPAc/Heptane (1:2 V/V) and toluene were used as the solvent systems for these competitive slurry experiments. Three selected solvents, 1.0 mL, were added to achieve free-flowing slurry and allowed to equilibrate at room temperature.

[4] = Thermal stability experiments (solid stored at 60 °C; XRPD and HPLC); conditions: for HPLC (% AUC): after storage at 60.0 °C; for Parent Material HPLC (% AUC): before storage at 60.0 °C; for Physical form / XRPD pattern change after storage at 60 °C for seven days (in words) / Chemical stability / degradation by HPLC after storage at 60 °C for seven days (in words): solid
[5] = Aqueous solubility (slurry in deionized water at room temperature, filtrate by HPLC, solids by XRPD); conditions: deionized water, room temperature, equilibrated with stirring, filtrate by HPLC
Protocol: Approximately 14-25 mg of Forms A, D and G were transferred to 20 mL vials equipped with magnetic stir bars. 1.0 mL of deionized water was added and the resulting free flowing slurry was allowed to equilibrate over 1 and 7 days period with stirring at room temperature. […] The filtrates were analyzed by HPLC to determine solubility.

[6] = Slurry of a single salt (seven days of stirring in water / acetone), XRPD; assay type: physicochemical
[7] = Thermal holding (TGA thermal hold) experiments of salts, XRPD of resulting solid; assay type: physicochemical; conditions: held at 150 °C
[8] = Competitive slurry of calcium, potassium and sodium salts in acetone; assay type: physicochemical; conditions: acetone (50 μL water added for potassium and sodium salts), room temperature, one and seven days
Protocol: Calcium, sodium, and potassium salts were used to setup different competitive slurry experiments. For competitive slurry of calcium salts (˜5-6 mg of Salt I and Salt II) were weighed into a 5.0 mL clear vial equipped with magnetic stir bars. These steps were repeated for potassium salt material (˜5-6.5 mg of Salt III) and sodium salt materials (˜2.6-6.4 mg of Salt IV and Salt V). […] All slurries, 400 μL, were filtered through 0.45 micron centrifuge filters after one and seven days of equilibration. The solids were analyzed by XRPD to check for salt conversion (Table 36).

[9] = Competitive slurry experiment of Forms A to H; assay type: physicochemical; conditions: IPAc/Heptane or toluene, RT
Protocol: Approximately 2 to 3 mg of materials from Forms A to H were weighed into a 20.0 mL clear vial equipped with magnetic stir bars (Table 13). IPAc/Heptane (1:2 V/V) and toluene were used as the solvent systems for these competitive slurry experiments. Two selected solvents, 1.0 mL, were added to achieve free-flowing slurry and allowed to equilibrate at room temperature. All slurries will be isolated via centrifuge filtration after one day and seven days of equilibration.

Structure (SMILES): O=C(O)CNC(=O)c1ncc(-c2cccc(F)c2)cc1O [Form D, 2-(5-(3-fluorophenyl)-3-hydroxypicolinamido)acetic acid]
- Moisture Sorption 60% RH ([1]; 60% RH): 0.7%
- Moisture adsorbed at 60% RH ([1]; 60% RH): 0.7 wt %
- Moisture Sorption 90% RH ([1]; 90% RH): 1.0 wt %
- Moisture Sorption 90% RH ([1]; 90% RH, listed as D): 1.0 wt %
- Weight moisture uptake at 60% RH ([1]; 60% RH): about 0.7 % weight
- Weight moisture uptake at 90% RH ([1]; 90% RH): about 1.0 % weight
- XRPD analysis of the post-DVS material [1]: consistent with the starting material
- Hygroscopicity (in words) [1]: slightly hygroscopic
- Outcome in the single form and competitive slurry experiments (in words) [2]: converted to Form A
- XRPD, Day 3 ([2]; single form slurry, IPAc/Heptane (1:2 V/V), RT): A + D
- XRPD, Day 3 ([2]; single form slurry, Toluene, RT): A + D
- XRPD, Day 6 ([2]; single form slurry, Water, RT, day 6): A + D
- XRPD, Day 1 [3]: A + D
- HPLC (% AUC) [4]: >99.9 % AUC
- Parent Material HPLC (% AUC) [4]: >99.9 % AUC
- Physical form / XRPD pattern change after storage at 60 °C for seven days (in words) [4]: maintained its chemical and physical form
- Chemical stability / degradation by HPLC after storage at 60 °C for seven days (in words) [4]: maintained its chemical and physical form; also recorded: chemically stable
- Solubility (extrapolated values based on the standard curve 0.008-0.2 mg/mL) [5]: 490 µg/mL (≈ 1690 µM)

Structure (SMILES): O=C([O-])CNC(=O)c1ncc(-c2cccc(F)c2)cc1O.[Na+] [Salt IX]
- Moisture Sorption ([1]; 60% RH): 60% RH: 0.3 wt %
- Moisture Sorption ([1]; 90% RH): 90% RH: 0.3 wt %
- Moisture adsorbed at 60% RH ([1]; 60% RH): 0.3 wt %
- Moisture Sorption 90% RH ([1]; 90% RH): 0.3 wt %
- XRPD analysis of the post-DVS material [1]: consistent with Salt IV of Compound 1
- Hygroscopicity (in words) [1]: moderately hydroscopic
- Form after seven days of stirring in water and acetone ([6]; water and acetone): converted to Salt VIII or Salt IV
- XRPD of solid after thermal holding experiment at 150 °C [7]: consistent with the starting material
- Physical form / XRPD pattern change after storage at 60 °C for seven days (in words) [4]: no change in XRPD pattern
- Chemical stability / degradation by HPLC after storage at 60 °C for seven days (in words) [4]: no degradation

Structure (SMILES): O=C([O-])CNC(=O)c1ncc(-c2cccc(F)c2)cc1O.[Na+] [Salt VIII]
- Moisture Sorption ([1]; 60% RH): 60% RH: 1.0 wt %
- Moisture Sorption ([1]; 90% RH): 90% RH: 2.7 wt %
- Moisture adsorbed at 60% RH ([1]; 60% RH): 1.0 wt %
- Moisture Sorption 90% RH ([1]; 90% RH): 2.7 wt %
- XRPD analysis of the post-DVS material [1]: consistent with the starting material
- Hygroscopicity (in words) [1]: moderately hydroscopic
- Outcome of competitive slurry of salts (in words) [8]: stable in an acetone slurry
- XRPD after seven days of stirring in acetone ([6]; acetone): no change in XRPD pattern
- Physical form / XRPD pattern change after storage at 60 °C for seven days (in words) [4]: no change in XRPD pattern
- Chemical stability / degradation by HPLC after storage at 60 °C for seven days (in words) [4]: no degradation

Structure (SMILES): O=C(O)CNC(=O)c1ncc(-c2cccc(F)c2)cc1O [Form A, 2-(5-(3-fluorophenyl)-3-hydroxypicolinamido)acetic acid]
- Moisture Sorption 60% RH ([1]; 60% RH): 0%
- Moisture adsorbed at 60% RH ([1]; 60% RH): 0 wt %
- Moisture Sorption 90% RH ([1]; 90% RH): 6.1 wt %
- Moisture Sorption 90% RH ([1]; 90% RH, listed as A): 6.1 wt %
- Weight moisture uptake at 60% RH ([1]; 60% RH): about 0 % weight
- Weight moisture uptake at 90% RH ([1]; 90% RH): about 6.1 % weight
- XRPD analysis of the post-DVS material [1]: consistent with the starting material
- Hygroscopicity (in words) [1]: moderately hygroscopic
- Outcome in the single form and competitive slurry experiments (in words) [2]: most stable polymorph
- XRPD, Day 1 [3]: A + D
- HPLC (% AUC) [4]: >99.9 % AUC
- Parent Material HPLC (% AUC) [4]: >99.9 % AUC
- Physical form / XRPD pattern change after storage at 60 °C for seven days (in words) [4]: No chemical and physical form changes
- Chemical stability / degradation by HPLC after storage at 60 °C for seven days (in words) [4]: No chemical and physical form changes; also recorded: chemically stable
- Solubility (extrapolated values based on the standard curve 0.008-0.2 mg/mL) [5]: 2.6 µg/mL (≈ 8.96 µM)

Structure (SMILES): O=C(O)CNC(=O)c1ncc(-c2cccc(F)c2)cc1O [Form B, 2-(5-(3-fluorophenyl)-3-hydroxypicolinamido)acetic acid]
- Outcome in the competitive slurry experiment (in words) [9]: converted to Form A

Reference: patent US10150734B2, “Solid forms of 2-(5-(3-fluorophenyl)-3-hydroxypicolinamido)acetic acid, compositions, and uses thereof” (Akebia Therapeutics, Inc., priority 2015, dated 2018)
